Test results from US20140128352A1, “COMPOUNDS AND METHODS FOR MODULATING MITOCHONDRIAL METABOLISM AND REACTIVE OXYGEN SPECIES PRODUCTION” (Buck Institute for Research on Aging, priority 2012, published 2014).
Entries after “also recorded” stand apart in the source; their conditions may differ.

Assays:
[1] = tested on: mitochondrial respiration; assay: Mitochondrial respiration, Seahorse XF24; type: biochemical, rat; conditions: complex I, complex II or glycerol phosphate substrates; states 2, 3, 4
Experimental: Measurements of ΔΨm described in the previous examples were made under “resting” conditions in which substrates were present but ΔΨm was not coupled to ATP (energy) production by mitochondria. To test the effect of candidate compounds on mitochondrial bioenergetics under energy producing conditions, respiratory coupling parameters were measured in isolated mitochondria in microplate format using a Seahorse XF 24 analyzer (Rogers, G. et al. (2011) High Throughput Microplate Respiratory Measurements Using Minimal Quantities of Isolated Mitochondria. PLoS One. 6(7): e21746). […] ATP synthesis was terminated by injection of oligomycin (0.5 μg/mL) and leak-dependent respiration was measured (state 4o). Finally, the complex III inhibitors antimycin A (2.5 uM) and myxothiazol (2 μM) were injected to terminate respiration. Respiratory profiles were evaluated for signs of inhibition (decreased states 2, 3, or 4o) or uncoupling (increased states 2 or 4o) by candidate compounds. Seahorse XF experiments were performed in a mannitol-sucrose based buffer as described in Rogers et al. 2011. For respiration experiments driven by glycerol phosphate, this buffer was supplemented with CaCl2 to a final free concentration of 250 nM.

[2] = tested on: site IQ; assay: Retest of IQ ROS production (expanded microplate panel / cuvette); type: biochemical, rat; conditions: for effect on IQ ROS with subsaturating substrate: subsaturating (0.5 mM) succinate
Experimental: Compounds identified as site-selective hits as well as structural analogs were re-sourced from ChemBridge and dissolved in DMSO as 80 mM stocks. Master Titration Plates were prepared manually by serially diluting 80 mM compound stocks between 0.08 and 80 mM on 96-well microplates. Four compounds were titrated in duplicate on each plate. Additional DMSO controls were interspersed across these plates to serve as local normalization controls during analysis since two-way median polishing was not appropriate. Just prior to use, compounds were diluted 100-fold with standard buffer (10X). The same known inhibitor positive controls were included on each plate as during high-throughput screening.
The five core ROS assays and single ΔΨm assay were carried out as in the initial high-throughput screen. In addition, several assays were included to help validate the specificity of the compounds for a given site of production. All compounds were titrated against separate assays targeting IQ ROS and IIIQo ROS using subsaturating (0.5 mM final) succinate. […] Specifically, ΔΨm was monitored separately with 5 mM succinate (in the presence of 4 μM rotenone) in addition to glutamate and malate as before. The use of different substrates was designed to reveal compounds that disrupt mitochondrial function in a substrate specific manner.
Most frequently, these changes involved the use of different substrates to supply electrons from an alternative entry point in the chain. If a site of ROS production is being targeted selectively by a compound, then in many cases the supply of electrons should not influence the effectiveness of this compound at suppressing ROS production. […] Alternative conditions are listed below: • 1) IQ ROS: 5 mM succinate with 1 mM glutamate • 2) IF ROS: 5 mM malate only as substrate (in the presence of 4 μM rotenone) • 3) IIIQo ROS: 5 mM succinate (in the presence of 3 mM malonate, 4 uM rotenone, and 2.5 μM antimycin A) • 4) IIIQo ROS: 25 mM glycerol phosphate (in the presence of 1 mM malonate, 4 μM rotenone, and 2.5 μM antimycin A) • 5) SDH: 0.5 mM succinate (in the presence of 4 uM rotenone, 2.5 uM antimycin A, and 2 μM myxothiazol) • 6) GPDH: Vary the concentration of glycerol phosphate in the presence or absence of 250 nM free calcium to allosterically activate GPDH (all in the presence of 4 μM rotenone, 2.5 uM antimycin A, 1 mM malonate, and 2 μM myxothiazol) • 7) ΔΨm: Vary the concentration of glycerol phosphate in the presence or absence of 250 nM free calcium to allosterically activate GPDH and in the presence or absence of 80 ng/mL nigericin (all in the presence of 4 μM rotenone)
The fluorescence values in each well were scaled in relation to the intra-plate DMSO and known inhibitor controls as in the high-throughput screen except that median values for local interspersed DMSO wells (3-6 wells) were used rather than just the 8 DMSO wells in columns 1 and 12. This normalization was applied in place of the two-way median polish used during high-throughput screening to minimize row and column effects. […] At this stage, strong candidates were not necessarily excluded from further testing if subtle off-target effects were observed (e.g. loss of specificity or signs of general inhibition at the highest concentrations). Rather, these candidates were often pursued for more detailed mechanistic studies with the expectation that subsequent structure activity analysis would provide insight into which structurally related compounds would provide the optimal specificity for a given site of production.
Candidate compounds that remained site-selective following robotics assisted retesting were subsequently tested for effects on ROS production and ΔΨm with a Varian Cary Eclipse fluorimeter (excitation 550 nm, emission at 590 nm). This experimental format allows kinetic measurements of ROS production and ΔΨm with more accurate temperature control, sample stirring, and background correction. […]

[3] = molecular target: T1, site IF (Rattus norvegicus, UniProt Q5XIH3); assay: Retest of IF ROS production (expanded microplate panel); type: biochemical
T1 construct: freshly isolated muscle mitochondria were assayed; from tissue; host or cells: rat skeletal muscle mitochondria (Wistar, Harlan Laboratories)
Experimental: (§1) Compounds identified as site-selective hits as well as structural analogs were re-sourced from ChemBridge and dissolved in DMSO as 80 mM stocks. Master Titration Plates were prepared manually by serially diluting 80 mM compound stocks between 0.08 and 80 mM on 96-well microplates. Four compounds were titrated in duplicate on each plate. Additional DMSO controls were interspersed across these plates to serve as local normalization controls during analysis since two-way median polishing was not appropriate. Just prior to use, compounds were diluted 100-fold with standard buffer (10X). The same known inhibitor positive controls were included on each plate as during high-throughput screening. The five core ROS assays and single ΔΨm assay were carried out as in the initial high-throughput screen. In addition, several assays were included to help validate the specificity of the compounds for a given site of production. […] The use of different substrates was designed to reveal compounds that disrupt mitochondrial function in a substrate specific manner. […] Most frequently, these changes involved the use of different substrates to supply electrons from an alternative entry point in the chain. If a site of ROS production is being targeted selectively by a compound, then in many cases the supply of electrons should not influence the effectiveness of this compound at suppressing ROS production. […] The fluorescence values in each well were scaled in relation to the intra-plate DMSO and known inhibitor controls as in the high-throughput screen except that median values for local interspersed DMSO wells (3-6 wells) were used rather than just the 8 DMSO wells in columns 1 and 12. This normalization was applied in place of the two-way median polish used during high-throughput screening to minimize row and column effects. […] At this stage, strong candidates were not necessarily excluded from further testing if subtle off-target effects were observed (e.g. loss of specificity or signs of general inhibition at the highest concentrations). Rather, these candidates were often pursued for more detailed mechanistic studies with the expectation that subsequent structure activity analysis would provide insight into which structurally related compounds would provide the optimal specificity for a given site of production.

[4] = molecular target: T2, site IIIQo (Rattus norvegicus, UniProt P00159+P20788); assay: Retest of IIIQo ROS production (expanded microplate panel); type: biochemical
T2 construct: freshly isolated muscle mitochondria were assayed; from tissue; host or cells: rat skeletal muscle mitochondria (Wistar, Harlan Laboratories)
Experimental: as §1

T1 sequence (Q5XIH3 21-464 limits assumed): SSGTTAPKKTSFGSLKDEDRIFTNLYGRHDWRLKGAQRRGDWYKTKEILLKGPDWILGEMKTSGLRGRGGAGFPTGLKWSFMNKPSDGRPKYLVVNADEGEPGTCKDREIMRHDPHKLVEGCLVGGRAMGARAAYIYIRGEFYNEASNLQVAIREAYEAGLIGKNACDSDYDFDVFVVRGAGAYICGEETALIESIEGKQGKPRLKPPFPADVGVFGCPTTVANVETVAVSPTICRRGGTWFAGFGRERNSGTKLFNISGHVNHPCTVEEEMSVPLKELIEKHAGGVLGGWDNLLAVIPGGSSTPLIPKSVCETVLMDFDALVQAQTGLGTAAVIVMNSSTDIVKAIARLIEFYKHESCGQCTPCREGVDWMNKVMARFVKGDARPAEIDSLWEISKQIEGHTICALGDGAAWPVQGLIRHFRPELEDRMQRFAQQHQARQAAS

Structure (SMILES) | effect on mitochondrial respiration [1] | effect on IF ROS and selectivity for site IF [3] | effect on IIIQo ROS [4] | effect on IQ ROS with subsaturating substrate ([2]; retest) | further results
O=[N+]([O-])c1ccc(Oc2ccc(S(=O)(=O)NC3CCCCC3)cc2)cc1 [Compound 4] | did not significantly inhibit or show signs of uncoupling respiration under any conditions except at 80 uM; also recorded: does not inhibit forward electron flow through CI |  |  |  | effects on other major sites of ROS production ([2]; 2.5 uM): without discernible effects on any other major sites within mitochondria
O=C(O)C1CCCCC1C(=O)NC1CCCCC1 (stereo not shown) [Compound 19] | inhibits ADP-stimulated respiration with complex I substrates; also recorded: no signs of uncoupling but did reveal a progressive inhibition of state 3 respiration (ATP producing) only with CI substrates | selectively lowers ROS production from site IF | unaffected until the highest concentration tested (80 μM) | minimal effects on IQ ROS production driven with subsaturating substrate until 25 μM | inhibition at 2.5 µM ([3]; 2.5 μM): 24%; effect on IQ ROS with saturating substrate ([2]; retest, saturating substrate): unaffected until the highest concentration tested (80 μM)
COc1cc(CN(CCN(C)C)Cc2ccccc2)cc(OC)c1 [Compound 31] |  | improved selectivity toward the IF site in combination with a lowered effect on ΔΨm |  | stronger off-target effects on IQ ROS when driven by low concentration succinate | 
Cc1ccc(C)c(CN(CCCN(C)C)CCCN(C)C)c1 [Compound 32] | increases ADP-stimulated respiration specifically with complex I substrates; also recorded: significantly increased state 3 respiration specifically with CI substrates | selectively lowers ROS production from site IF; also recorded: further improved selectivity for IF without compromising ΔΨm |  |  | 
COc1ccc(Cl)cc1N(Cc1ccccc1)Cc1ccccc1 [Compound 34] |  |  | selectively lowers ROS production from site IIIQo independent of substrate concentration | consistently increased IQ ROS but only with subsaturating substrate | inhibition at 8 µM ([4]; 8 μM, independent of substrate concentration): 60%
CC1=CC(C)(C)N(Cc2ccc([N+](=O)[O-])cc2)c2ccccc21 [Compound 37] | did not uncouple state 2 respiration; also recorded: does not show signs of uncoupling state 2 respiration at high concentrations |  | lowers ROS from site IIIQo independent of substrate concentration | decreased IQ ROS with low substrate; also recorded: lowers site IQ ROS with subsaturating succinate | 
O=C(O)CSc1cccc(C(=O)Nc2ccc(Br)cc2)c1 [Compound 47] |  |  | off-target effect on site IIIQo ROS |  | 
